Source: PubChem BioAssay AID179 (DTP/NCI, 2004)
Where “and” joins values, the source holds several entries; their conditions need not be identical. Equal values may be shown once. Calls of active or inactive are those of the source.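 Rule for the calls: active = compounds giving half or more protection of infected cells from virus-caused growth loss, again on retest; inactive = the rest.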

Test system: CEM cells HIV-1 protection, formazan growth assay
Assay: NCI AIDS Antiviral Assay
Details: for IC50: measured here: growth of uninfected CEM cells
How it was run: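 Five concentrations of each compound were applied to infected and uninfected human CEM cells. Protection from HIV-1 was judged from growth measured with a soluble formazan assay.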

| Compound | EC50 [µM] | IC50 | outcome |
| --- | --- | --- | --- |
| Cc1cc2c(C)cc(=O)[nH]c2cc1N | > 200 | > 200 µM | – |
| CCCCCC/C=C\CCCCCCCCCc1cccc(OC)c1O | > 200 | > 200 µM | – |
| COc1ccc(/C=C2\N=C(C)OC2=O)cc1 | > 437 | > 437 µM | – |
| N.N.NC(CS)C(=O)[O-].NC(CS)C(=O)[O-].[Pt+4] (stereo not given) | > 3310 | > 3310 µM | – |
| N=C(N)n1[nH]c2c(c1=O)CCC2 | > 200 | > 200 µM | – |
| Cc1ccc(S(=O)(=O)Nc2ccccc2C(C)(C)C)cc1 | – | – | inactive |
| CCOC(=O)C(=CCC1NCCc2c1[nH]c1ccccc21)C(=O)OCC (stereo not given) | > 20.4 | 12 µM | – |
| CCCOC(=O)c1ccc(N)cc1 | > 200 | > 200 µM | – |
| Cc1cn(C2CC(N=[N+]=[N-])C(COC(=O)CCCCCCCCCCCBr)O2)c(=O)[nH]c1=O (stereo not given) | – | 37.2 µM | active |
| C=CCCCCCCCCC(=O)NC(C)C(C)(C)C (stereo not given) | > 200 | 74.1 µM | – |
| O=c1c2cc(Cl)ccc2sc2cccc(Cl)c12 | > 1.35 | > 1.35 µM | – |
| CCOC(=O)c1nc2ccccc2nc1NCc1ccc(OC)c(OC)c1 | > 200 | > 200 µM | – |
| CCOC(=O)/C(O)=C(/C=NC(=S)c1ccncc1)C(=O)OCC | > 200 | > 200 µM | – |
| COc1cc(C2c3cc4c(cc3OC(NNC(N)=O)C2C)OCO4)cc(OC)c1O (stereo not given) | > 200 | 0.525 µM | – |
| CCCCC1C(=O)N2C=C(c3ccccc3)c3ccccc3N2C1=O (stereo not given) | > 100 | 60.3 µM | – |
| CC1(C)CC2CC(CC(C)(C)C2=O)C1=O | > 871 | > 871 µM | – |
| OC1(c2ccccc2)CSC2=Nc3ccccc3C3CCN1N23 (stereo not given) | > 200 | 36.3 µM | – |
| CC1CN=C(NS(=O)(=O)c2cc(C(=O)Nc3ccccc3)c(Cl)cc2S)NN1 (stereo not given) | > 200 | 19.1 µM | – |
| NC(=O)NCNC(N)=O | > 676 | > 676 µM | – |
| COc1ccc(Cl)cc1C(=O)c1cc(Cl)cc(S(=O)(=O)N(C)C)c1OC | > 9.12 | 8.13 µM | – |
| C=C[Si](C)(C)COC(=O)/C(C#N)=C/C=C/c1ccccc1 | > 9.12 | > 9.12 µM | – |
| COC(CN1C=C(Sc2ccccc2)CC1)OC | > 97.7 | 16.6 µM | – |
| CCc1cc(C(=O)OC)cn1C(=N)c1ccc(Cl)cc1 | > 851 | > 851 µM | – |

| Compound | EC50 [µM] | IC50 | outcome |
| --- | --- | --- | --- |
| CC(=O)/C=C/c1ccc(C)cc1 | > 63.1 | > 63.1 µM | – |
| CC(=O)Nc1cc2c(cc1[N+](=O)[O-])-c1ccccc1C2=O | > 200 | > 200 µM | – |
| Cc1cn(C2OCC(CO)C2F)c(=O)[nH]c1=O (stereo not given) | > 200 | > 200 µM | – |
| N#CC(N)c1ccc(OCCCCCCCCCCOc2ccc(C(N)C#N)cc2)cc1 (stereo not given) | > 200 | 115 µM | – |
| CC(=O)N(C(C)=O)n1c(Cc2ccc(Cl)cc2)nn(C(C)=O)c1=O | > 200 | > 200 µM | – |
| O=c1[nH]nc(Cc2ccccc2)[nH]1 | > 200 | > 200 µM | – |
| O=c1c(Cl)cc2nc3ccccc3sc-2c1Cl | > 9.55 | 8.91 µM | – |
| CCCCCCCCCCCC(=O)OCC1OC(OC)C(NC(=O)N(CCCl)N=O)C(O)C1O (stereo not given) | > 26.3 | 22.4 µM | – |
| S=C(NCc1ccccc1)N/N=C/c1ccccn1 | > 20 | 0.141 µM | – |
| O=C(/C=C/c1ccc(Br)cc1)c1ccccc1 | > 18.2 | 9.55 µM | – |
| CC[C@@]12CCC(=O)N3CCC4(C(=C(C(=O)OC)C1)Nc1ccccc14)[C@H]32 (stereo not given in full) | > 269 | 15.5 µM | – |
| O=C1CC2(CCN(Cc3ccccc3)CC2)CC(=O)N1 | > 200 | > 200 µM | – |
| O=C1CC(c2ccc(O)c(O)c2)c2c(cc(O)c3c2O[C@H](c2ccc(O)c(O)c2)[C@H](O)C3)O1 (stereo not given in full) | > 200 | 31.6 µM | – |
| O=S(=O)(c1ccccc1)c1nccs1 | 110 | 575 µM | – |
| CC(C)C1CO[C@]2(C)CCC(=O)N12 (stereo not given in full) | > 1350 | > 1350 µM | – |
| Cc1ccc(S(=O)(=O)/C(C#N)=C\N2CC(=O)NC2=S)cc1 | > 200 | > 200 µM | – |
| CC(=O)NNc1nc(C)c(C(=O)NNC(=O)C(=O)Nc2cccc(C(C)=O)c2)s1 | > 44.7 | > 44.7 µM | – |
| O=Nc1c(O)cc(O)c2ccccc12 | – | – | inactive |
| C[C@@]12CCC[C@@H](OC(=O)c3ccc(Br)cc3)[C@@H](C1)C(=O)CC2 | – | – | inactive |
| COc1cc2cccc(N=Cc3c(Br)ccc(OC)c3OC(C)C)c2cc1OC | > 3.16 | > 3.16 µM | – |
| Cc1cc(Sc2cc(C)c(O)c(C(C)(C)C)c2)cc(C(C)(C)C)c1O | > 200 | 15.8 µM | – |
| Nc1ccn(C2CC3OCC3O2)c(=O)n1 (stereo not given) | > 200 | > 200 µM | – |
| CN(NC(=O)/C(=C\c1ccccc1Cl)NC(=O)c1ccccc1)c1cn[nH]c(=O)c1Cl | > 100 | 52.5 µM | – |

| Compound | EC50 [µM] | IC50 | outcome |
| --- | --- | --- | --- |
| CN(Cc1ccccc1)c1cc(=O)n(C)c(=O)[nH]1 | > 200 | > 200 µM | – |
| O=C(NCCCCNCCCNC(=O)C(F)(F)F)C(F)(F)F | > 200 | > 200 µM | – |
| COC(=O)c1ccc(/C=C/C2=CC(=O)C=CC2=O)cc1 | > 200 | 2.09 µM | – |
| CC1=NN(c2ccccc2)C(=O)/C1=C1\SS/C(=C2\C(=O)N(c3ccccc3)N=C2C)S1 | > 100 | > 100 µM | – |
| c1ccc(COCC2OC3c4ccccc4COC3C2OCc2ccccc2)cc1 (stereo not given) | – | – | inactive |
| NCCCN(CCCCN(CCCN)Cc1ccccc1)Cc1ccccc1 | 64.6 | 70.8 µM | – |
| CC(=O)NC(CCCN(Cc1ccccc1)C(=O)N(C)N=O)C(=O)NCc1ccccc1 (stereo not given) | > 112 | > 112 µM | – |
| O=C1N(CO)C2C(N1CO)N(CO)C(=O)N2CO (stereo not given) | > 200 | 33.1 µM and 102 µM | – |
| c1ccc2[nH]c(CSc3nc4ccccc4s3)nc2c1 | > 200 | 120 µM | – |
| O=C(Nc1ccc(Cl)cc1)c1cc2cc(N=Nc3ccccc3Cl)ccc2oc1=O | > 16.6 | > 16.6 µM | – |
| CCCCNC(C)(C)C(SSSC(c1ccco1)C(C)(C)NCCCC)c1ccco1 (stereo not given) | > 200 | 30.9 µM | – |
| Cn1cc(NC(=O)Nc2cc(C(=O)Nc3cc(C(=O)Nc4ccc(P(=O)(O)O)c5cc(P(=O)(O)O)ccc45)n(C)c3)n(C)c2)cc1C(=O)Nc1cc(C(=O)Nc2ccc(P(=O)(O)O)c3cc(P(=O)(O)O)ccc23)n(C)c1 | > 49 | 31.6 µM | – |
| O=C1C(C(O)(C(F)(F)F)C(F)(F)F)CCC1C(O)(C(F)(F)F)C(F)(F)F (stereo not given) | – | – | inactive |
| COc1cc(-c2oc3c(OC)cc(OC)c(O)c3c(=O)c2OC)cc(OC)c1OC | > 200 | > 200 µM | – |
| N#CC1=C2Oc3ccccc3N2C(c2ccc(Cl)cc2)C(C#N)=C1N (stereo not given) | > 200 | 36.3 µM | – |
| COc1cc(/C=C2\N=C(C)N(n3c(-c4ccccc4)nc4ccccc4c3=O)C2=O)cc(OC)c1OC | > 200 | 38.9 µM | – |
| NC1CCCC2CCC(N)C12 (stereo not given) | > 200 | 9.55 µM | – |
| NC1=NC(OCC2(CO)CCC2)C=C(NCC2(CO)CCC2)N1 (stereo not given) | > 200 | > 100 µM | – |
| Cc1ccc2cc(N)c3ccc(C)nc3c2n1 | > 2 | 0.309 µM | – |
| CO/C(=N\N=C\c1ccc(Cl)c(Cl)c1)c1ccncc1 | > 23.4 | > 23.4 µM | – |
| COc1cc(/C=C(\NC(=O)c2ccccc2)c2nc3ccc([N+](=O)[O-])cc3[nH]2)cc(OC)c1OC | – | – | inactive |
| CC1([N+](=O)[O-])COP(=O)(Nc2cccc(Cl)c2)OC1 (stereo not given) | > 813 | 398 µM | – |
| O=c1[nH]c(=O)n(C2CC(F)C(CO)O2)cc1CO (stereo not given) | > 479 | 186 µM | – |

| Compound | EC50 [µM] | IC50 | outcome |
| --- | --- | --- | --- |
| O=c1cc2c(=O)oc3cc(O)c(O)oc3c2c(O)c1O | > 324 | 13.8 µM | – |
| COc1ccc(C2c3cc(OC)c(OC)cc3CC3C(=O)OCC32)cc1OC (stereo not given) | > 200 | > 200 µM | – |
| NNC(=O)CCC(=O)NC1C2CC3CC(C2)CC1C3 (stereo not given) | > 676 | > 676 µM | – |
| COc1ccc(N=Nc2c(-c3ccccc3)nn(C(=O)CC(=O)Nc3ccc(OC)cc3)c2-c2ccccc2)cc1 | > 25.1 | > 25.1 µM | – |
| CCN(CC)CP(CN(CC)CC)CN(CC)CC | > 200 | 126 µM | – |
| CC(=O)NC1CC(C(C)(C)NC(C)=O)CC=C1C (stereo not given) | > 269 | > 269 µM | – |
| CC(C)NC(=O)OCCN=c1c2ccccc2ccc2ccccc12 | > 200 | 93.3 µM | – |
| COC1(OC)N=C(N)C2(C#N)C(c3ccccc3)NC3=C(CCC3)C12C#N (stereo not given) | > 200 | > 200 µM | – |
| COC(=O)/C([O-])=C(\C(=O)OC)[n+]1cc(Br)cc2ccccc21 | > 200 | 77.6 µM | – |
| COc1cc2nc(/C=C/c3nc4cc(OC)c(OC)cc4[nH]3)[nH]c2cc1OC | > 200 | 57.5 µM | – |
| COC(=O)CNC(=O)Nc1cc(N2C(=O)ON3C2C(C)(C)N(O)C3(C)C)ccc1C (stereo not given) | > 200 | 170 µM | – |
| CCOC(=O)/C=C/SCCCC(=O)O | – | > 1150 µM and 1150 µM | – |
| CC(C)C(=Nc1ccc(Cl)c(Cl)c1)N(C)C | > 200 | > 100 µM | – |
| O=C1OC2OC3OC(=O)C4C3CC2C14 (stereo not given) | > 257 | > 257 µM | – |
| O=C(O)c1cc(Cc2cc(C(=O)O)c(O)c(C(=O)c3ccc(O)c(C(=O)O)c3)c2)ccc1O | 537 | 832 µM | – |
| COc1ccc(OC)c2[nH]c(Sc3c([N+](=O)[O-])ncn3C)nc12 | > 21.4 | 7.08 µM | – |
| Cc1cc(NS(=O)(=O)c2ccc(Nc3c4ccccc4nc4c(C(=O)N5CCN(CCO)CC5)ccc(Cl)c34)cc2)no1 | > 47.9 | > 47.9 µM | – |
| O=C1NC2(CCCCC2)C2CCCCC=C12 (stereo not given) | – | – | inactive |
| O=C(O)C1=Cc2cccc3cccc(c23)C1=O | – | – | inactive |
| O=C1C[C@H](Sc2ccccc2)C2(OCCO2)[C@@H](Sc2ccccc2)C1 | > 2 | 1.05 µM | – |
| COc1ccc2c(c1)CCc1c(C(C)=O)c3ccccc3n1C2 | > 58.9 | > 58.9 µM | – |
| CCCC1(NC(=O)C(F)(F)F)CC(OC)OC2COC(c3ccccc3)OC21 (stereo not given) | > 200 | > 200 µM | – |
| CC(CCC(=O)O)[C@H]1CCC2[C@@H]3CC(O)[C@@H]4CC(O)CC[C@]4(C)C3CC[C@@]21C (stereo not given in full) | > 200 | 72.4 µM | – |
